The nature of the series: UV/VIS-near-IR absorption of the dyes. The series is classed as physicochemical. Particulars: for ε (CH2Cl2): molar extinction coefficient in CH2Cl2. The protocol:
Synthetic Methods. All reactions were performed open to air unless otherwise noted. Concentration in vacuo was performed on a rotary evaporator. NMR spectra were recorded at 300 or 500 MHz for ^1H and at 75.5 MHz for ^13C with residual solvent signal as internal standard. UV/VIS-near-IR spectra were recorded in quartz cuvettes with a 1-cm path length. Melting points were determined with a capillary melting point apparatus and are uncorrected. […] Pyranones 16b-16d are known compounds (J. Heterocycl. Chem. 1999, 36, 707-717). The synthesis of thiopyranone 16a and 4-methylpyrylium salt 15c is shown in Scheme 2. 4-Methylpyrylium salts 15a, 15d, and 15e have been reported previously in the literature (J. Org. Chem. 1982, 47, 5235-5239; Organometallics 1988, 7, 1131-1147; Dyes Pigm. 2000, 45, 1-7).

Where [1] appears, read: Table 2, Example 2 dyes, CH2Cl2.

SMILES strings stand for the structures.

Consider `C(=Cc1cc(-c2ccccc2)[se+]c(-c2ccccc2)c1)C=C1C=C(c2cccs2)SC(c2cccs2)=C1.F[P-](F)(F)(F)(F)F` [Dye 11, 4-(3-(2,6-dithiophen-2-yl-4H-thiopyran-4-ylidene)prop-1-enyl)-2,6-diphenylselenopyrylium hexafluorophosphate], for which the “ε (CH2Cl2)” value is 250000 M⁻¹ cm⁻¹. For the same compound, under “absorption maximum in CH2Cl2”, the “λmax (CH2Cl2)” value was 810 nm. As to `C(=Cc1cc(-c2ccccc2)[se+]c(-c2ccccc2)c1)C=C1C=C(c2ccccc2)SC(c2ccccc2)=C1.F[P-](F)(F)(F)(F)F` [Dye 1b, 4-(3-(2,6-diphenyl-4H-thiopyran-4-ylidene)prop-1-enyl)-2,6-diphenylselenopyrylium hexafluorophosphate], the “Log (ε)” value (Table 2, Example 2 dyes) is 5.30. The “λmax (CH2Cl2)” value under setting [1] turned out to be 784 nm. Take `C(=C1C=C(c2ccccc2)[Se]C(c2ccccc2)=C1)c1cc(-c2cccs2)[s+]c(-c2cccs2)c1.F[P-](F)(F)(F)(F)F` [Dye 2, 4-((2,6-diphenyl-4H-selenopyran-4-ylidene)methyl)-2,6-di(thiophen-2-yl)thiopyrylium hexafluorophosphate]: the “ε (CH2Cl2)” value turned out to be 130000 M⁻¹ cm⁻¹. Besides, under “absorption maximum in CH2Cl2”, the “λmax (CH2Cl2)” value came out at 676 nm. The matching figures for `C(=Cc1cc(-c2ccccc2)[se+]c(-c2ccccc2)c1)C=C1C=C(c2ccccc2)SC(c2ccccc2)=C1.F[P-](F)(F)(F)(F)F` [Dye 10, 4-(3-(2,6-diphenyl-4H-thiopyran-4-ylidene)prop-1-enyl)-2,6-diphenylselenopyrylium hexafluorophosphate]: 200000 M⁻¹ cm⁻¹ and 784 nm. Regarding `C(/C=C/C=C/c1cc(-c2ccc[se]2)[se+]c(-c2ccc[se]2)c1)=C1C=C(c2ccc[se]2)[Se]C(c2ccc[se]2)=C1` [Dye 19, 4-((1E,3E)-5-(2,6-di(selenophen-2-yl)-4H-selenopyran-4-ylidene)penta-1,3-dien-1-yl)-2,6-di(selenophen-2-yl)selenopyrylium], under “absorption maximum in CH2Cl2”, the “λmax (CH2Cl2)” value came out at 1001 nm. As to `C(=C1C=C(c2ccccc2)SC(c2ccccc2)=C1)c1cc(-c2ccc[se]2)[s+]c(-c2ccc[se]2)c1.F[P-](F)(F)(F)(F)F` [Dye 7, 4-((2,6-diphenyl-4H-thiopyran-4-ylidene)methyl)-2,6-di(selenophen-2-yl)thiopyrylium hexafluorophosphate], the “ε (CH2Cl2)” value was found to be 140000 M⁻¹ cm⁻¹. The “λmax (CH2Cl2)” value (absorption maximum in CH2Cl2) was 659 nm. For `C(=C1C=C(c2cccs2)SC(c2cccs2)=C1)c1cc(-c2cccs2)[se+]c(-c2cccs2)c1.F[P-](F)(F)(F)(F)F` [Dye 5, 4-((2,6-di(thiophen-2-yl)-4H-thiopyran-4-ylidene)methyl)-2,6-di(thiophen-2-yl)selenopyrylium hexafluorophosphate] the same measures were 110000 M⁻¹ cm⁻¹ and 698 nm. Consider `C(=C1C=C(c2ccccc2)[Se]C(c2ccccc2)=C1)c1cc(-c2cccs2)[se+]c(-c2cccs2)c1.F[P-](F)(F)(F)(F)F` [Dye 3, 4-((2,6-diphenyl-4H-selenopyran-4-ylidene)methyl)-2,6-di(thiophen-2-yl)selenopyrylium hexafluorophosphate], for which the “ε (CH2Cl2)” value was determined as 150000 M⁻¹ cm⁻¹. For the same compound, the “λmax (CH2Cl2)” value (absorption maximum in CH2Cl2) was determined as 699 nm. `C1=C(c2ccccc2)Sc2ccccc2/C1=C/C=C/C1=CC(c2ccccc2)=[SH]c2ccccc21` [Dye 15, 2-phenyl-4-((E)-3-((E)-2-phenyl-4H-thiochromen-4-ylidene)prop-1-en-1-yl)thiochromenylium hexafluorophosphate]: the “ε (CH2Cl2)” value was 150000 M⁻¹ cm⁻¹. Besides, the “λmax (CH2Cl2)” value (absorption maximum in CH2Cl2) was 789 nm. `ClC1=C(/C=C/c2cc(-c3cccs3)[s+]c(-c3cccs3)c2)CCC/C1=C\C=C1C=C(c2cccs2)SC(c2cccs2)=C1` [Dye 21, 4-((E)-2-((E)-2-chloro-3-(2-(2,6-di(thiophen-2-yl)-4H-thiopyran-4-ylidene)ethylidene)-cyclohex-1-en-1-yl)vinyl)-2,6-di(thiophen-2-yl)thiopyrylium hexafluorophosphate]: the “λmax (CH2Cl2)” value (absorption maximum in CH2Cl2) worked out at 1119 nm. Take `C(=C1C=C(c2cccs2)SC(c2cccs2)=C1)c1cc(-c2cccs2)[s+]c(-c2cccs2)c1.F[P-](F)(F)(F)(F)F` [Dye 4, 4-((2,6-di(thiophen-2-yl)-4H-thiopyran-4-ylidene)methyl)-2,6-di(thiophen-2-yl)thiopyrylium hexafluorophosphate]: the “ε (CH2Cl2)” value was determined as 120000 M⁻¹ cm⁻¹. For the same compound, the “λmax (CH2Cl2)” value (absorption maximum in CH2Cl2) is 676 nm. The matching figures for `C(=C1C=C(c2cccs2)[Se]C(c2cccs2)=C1)c1cc(-c2cccs2)[se+]c(-c2cccs2)c1.F[P-](F)(F)(F)(F)F` [Dye 6, 4-((2,6-di(thiophen-2-yl)-4H-selenopyran-4-ylidene)methyl)-2,6-di(thiophen-2-yl)selenopyrylium hexafluorophosphate]: 130000 M⁻¹ cm⁻¹ and 724 nm. For `C(/C=C/C=C/c1cc(-c2cccs2)[s+]c(-c2cccs2)c1)=C1C=C(c2cccs2)SC(c2cccs2)=C1` [Dye 18, 4-((1E,3E)-5-(2,6-di(thiophen-2-yl)-4H-thiopyran-4-ylidene)penta-1,3-dien-1-yl)-2,6-di(thiophen-2-yl)thiopyrylium], for the setting “absorption maximum in CH2Cl2”, the “λmax (CH2Cl2)” value turned out to be 943 nm. Take `C(=Cc1cc(-c2ccccc2)[se+]c(-c2ccccc2)c1)C=C1C=C(c2cccs2)SC(c2cccs2)=C1.F[P-](F)(F)(F)(F)F` [Dye 2a, 4-(3-(2,6-dithiophen-2-yl-4H-thiopyran-4-ylidene)prop-1-enyl)-2,6-diphenylselenopyrylium hexafluorophosphate]: the “Log (ε)” value (Table 2, Example 2 dyes) came to 5.40. The “λmax (CH2Cl2)” value under setting [1] is listed as 810 nm. Regarding `C(=Cc1cc(-c2ccc[se]2)[s+]c(-c2ccc[se]2)c1)C=C1C=C(c2ccc[se]2)SC(c2ccc[se]2)=C1.F[P-](F)(F)(F)(F)F` [Dye 14, 4-(3-(2,6-di(selenophen-2-yl)-4H-thiopyran-4-ylidene)prop-1-en-1-yl)-2,6-di(selenophen-2-yl)thiopyrylium hexafluorophosphate], the “ε (CH2Cl2)” value was found to be 230000 M⁻¹ cm⁻¹. Further, the “λmax (CH2Cl2)” value (absorption maximum in CH2Cl2) is 826 nm. For `C1=C(/C=C/C=C2\C=C(c3ccccc3)[Se]c3ccccc32)C=C(c2ccccc2)[SH]=C1c1ccccc1` [Dye 16, 4-(3-(2,6-diphenyl-4H-thiopyran-4-ylidene)prop-1-enyl)-2-phenylselenobenzopyrylium hexafluorophosphate] the same measures were 61000 M⁻¹ cm⁻¹ and 748 nm. For `C1=C(c2cccs2)[Se]c2ccccc2/C1=C/C1=CC(c2cccs2)=[SeH]c2ccccc21` [Dye 17, 2-(thiophene-2-yl)-4-((2-(thiophen-2-yl)-4H selenobenzopyran-4-ylidene)methyl)selenobenzopyrylium hexafluorophosphate] the same measures were 78000 M⁻¹ cm⁻¹ and 786 nm. The matching figures for `C(=C1C=C(c2ccc[se]2)SC(c2ccc[se]2)=C1)c1cc(-c2ccc[se]2)[s+]c(-c2ccc[se]2)c1.F[P-](F)(F)(F)(F)F` [Dye 8, 4-((2,6-di(selenophen-2-yl)-4H-thiopyran-4-ylidene)methyl)-2,6-di(selenophen-2-yl)thiopyrylium hexafluorophosphate]: 110000 M⁻¹ cm⁻¹ and 687 nm. As to `C(=C1C=C(c2ccccc2)SC(c2ccccc2)=C1)c1cc(-c2cccs2)[s+]c(-c2cccs2)c1.F[P-](F)(F)(F)(F)F` [Dye 1], the “ε (CH2Cl2)” value worked out at 130000 M⁻¹ cm⁻¹. In addition, the “λmax (CH2Cl2)” value (absorption maximum in CH2Cl2) is listed as 653 nm. `C(=Cc1cc(-c2cccs2)[s+]c(-c2cccs2)c1)C=C1C=C(c2cccs2)SC(c2cccs2)=C1.F[P-](F)(F)(F)(F)F` [Dye 13, 4-(3-(2,6-dithiophen-2-yl-4H-thiopyran-4-ylidene)prop-1-enyl)-(2,6-dithiophen-2-yl)thiopyrylium hexafluorophosphate]: the “ε (CH2Cl2)” value was 280000 M⁻¹ cm⁻¹. Also, the “λmax (CH2Cl2)” value (absorption maximum in CH2Cl2) worked out at 813 nm. Take `C(=Cc1cc(-c2ccccc2)[s+]c(-c2ccccc2)c1)C=C1C=C(c2cccs2)SC(c2cccs2)=C1.F[P-](F)(F)(F)(F)F` [Dye 2b, 4-(3-(2,6-dithiophen-2-yl-4H-thiopyran-4-ylidene)prop-1-enyl)-2,6-diphenylthiopyrylium hexafluorophosphate]: the “Log (ε)” value (Table 2, Example 2 dyes) was found to be 5.34. Also, the “λmax (CH2Cl2)” value under setting [1] came out at 789 nm. As to `C(=Cc1cc(-c2ccccc2)[se+]c(-c2ccccc2)c1)C=C1C=C(c2ccccc2)[Se]C(c2ccccc2)=C1.F[P-](F)(F)(F)(F)F` [Dye 9, 4-(3-(2,6-diphenyl-4H-selenopyran-4-ylidene)prop-1-enyl)-2,6-diphenylselenopyrylium hexafluorophosphate], the “ε (CH2Cl2)” value worked out at 250000 M⁻¹ cm⁻¹. In addition, for the setting “absorption maximum in CH2Cl2”, the “λmax (CH2Cl2)” value is reported as 806 nm.

As for `ClC1=C(/C=C/c2cc(-c3ccccc3)[s+]c(-c3ccccc3)c2)CCC/C1=C\C=C1C=C(c2ccccc2)SC(c2ccccc2)=C1` [Dye 20, 4-((E)-2-((E)-2-chloro-3-(2-(2,6-diphenyl-4H-thiopyran-4-ylidene)ethylidene)cyclohex-1-en-1-yl)vinyl)-2,6-diphenylthiopyrylium hexafluorophosphate], the “ε (CH2Cl2)” value was 100000 M⁻¹ cm⁻¹. For the setting “absorption maximum in CH2Cl2”, the “λmax (CH2Cl2)” value came to 1042 nm.

Take `C(=Cc1cc(-c2cccs2)[s+]c(-c2cccs2)c1)C=C1C=C(c2cccs2)SC(c2cccs2)=C1.F[P-](F)(F)(F)(F)F` [Dye 3, 4-(3-(2,6-dithiophen-2-yl-4H-thiopyran-4-ylidene)prop-1-enyl)-(2,6-dithiophen-2-yl)thiopyrylium hexafluorophosphate]: the “Log (ε)” value (Table 2, Example 2 dyes) is 5.45. Under setting [1], the “λmax (CH2Cl2)” value came to 813 nm.

The record behind these values is US20170276611A1, “CHALCOGENOPYRYLIUM DYES, COMPOSITIONS COMPRISING SAME, COMPOSITE NANOPARTICLES COMPRISING SAME, AND METHODS OF MAKING AND USING THE SAME” (The Research Foundation for The State University of New York, priority 2014, published 2017).
